Test results reported in ChEMBL document CHEMBL1201862, “PubChem BioAssay data set” (2004).
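Test compounds were applied to cells in 96-well plates for 48 hours at 5 doses. GI50: concentration for 50% inhibition of growth.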 Activity calls are given as the source filed them. Rule as the data show it: active = GI50 up to about 1.1 µM and inactive = higher.

Tests used:
Assay in all cases: DTP human tumour cell line panel, 48 h
HCT-15 = system: HCT-15
Malme-3M = system: Malme-3M
SW-620 = system: SW-620
TK-10 = system: TK-10
MOLT-4 = system: MOLT-4
SF-539 = system: SF-539
IGROV-1 = system: IGROV-1
SK-MEL-5 = system: SK-MEL-5
SNB-19 = system: SNB-19
CAKI-1 = system: CAKI-1
M14 = system: M14
A498 = system: A498
MDA-N = system: MDA-N
KM12 = system: KM12
SK-OV-3 = system: SK-OV-3
SF-268 = system: SF-268
OVCAR-4 = system: OVCAR-4
U-251 = system: U-251
HCC 2998 = system: HCC 2998

SMILES	GI50 (HCT-15) [µM]	GI50 (Malme-3M)	GI50 (SW-620)	GI50 (TK-10)	GI50 (MOLT-4)	GI50 (SF-539)	GI50 (IGROV-1)	GI50 (SK-MEL-5)	GI50 (SNB-19)	GI50 (CAKI-1)	GI50 (M14)	GI50 (A498)	GI50 (MDA-N)	GI50 (KM12)	GI50 (SK-OV-3)	GI50 (SF-268)	GI50 (OVCAR-4)	GI50 (U-251)	GI50 (HCC 2998)
Oc1ccc(Cc2cc(Cl)cc(Cl)c2O)cc1Cl	16.9	16.8 µM (inactive)	16.6 µM (inactive)	16.3 µM (inactive)	20 µM (inactive)	17.1 µM (inactive)	17.9 µM (inactive)	17.5 µM (inactive)	16.9 µM (inactive)	22.6 µM (inactive)	15.7 µM (inactive)	19.5 µM (inactive)	8.93 µM (inactive)	20 µM (inactive)	27.1 µM (inactive)	16.6 µM (inactive)	23.3 µM (inactive)	19.2 µM (inactive)	–
C1CNCCN2CCCNCCN(C1)CC2	> 100	> 100 µM (inactive)	> 100 µM (inactive)	> 100 µM (inactive)	> 100 µM (inactive)	> 100 µM (inactive)	> 100 µM (inactive)	> 100 µM (inactive)	> 100 µM (inactive)	> 100 µM (inactive)	> 100 µM (inactive)	> 100 µM (inactive)	> 100 µM (inactive)	> 100 µM (inactive)	> 100 µM (inactive)	> 100 µM (inactive)	> 100 µM (inactive)	> 100 µM (inactive)	–
O=C(O)/C(=C\c1ccc(O)cc1)c1cccc2ccccc12	> 100	> 100 µM (inactive)	> 100 µM (inactive)	> 100 µM (inactive)	> 100 µM (inactive)	–	> 100 µM (inactive)	> 100 µM (inactive)	> 100 µM (inactive)	> 100 µM (inactive)	> 100 µM (inactive)	> 100 µM (inactive)	> 100 µM (inactive)	> 100 µM (inactive)	–	> 100 µM (inactive)	> 100 µM (inactive)	> 100 µM (inactive)	> 100 µM (inactive)
CN(C(=O)C1=CCC2(CC1)OCCO2)c1ccccc1OS(=O)(=O)C(F)(F)F	59	–	> 100 µM (inactive)	–	> 100 µM (inactive)	–	–	> 100 µM (inactive)	> 100 µM (inactive)	> 100 µM (inactive)	> 100 µM (inactive)	> 100 µM (inactive)	> 100 µM (inactive)	25.3 µM (inactive)	> 100 µM (inactive)	8.26 µM (inactive)	57.8 µM (inactive)	> 100 µM (inactive)	> 100 µM (inactive)
Cc1cc(C)c(S(=O)(=O)N(CCCN)OCCCON(CCCN)S(=O)(=O)c2c(C)cc(C)cc2C)c(C)c1	18.2	0.879 µM (active)	2.49 µM (inactive)	4.5 µM (inactive)	2.03 µM (inactive)	2.17 µM (inactive)	1.98 µM (inactive)	4.55 µM (inactive)	1.75 µM (inactive)	14.2 µM (inactive)	1.75 µM (inactive)	3.38 µM (inactive)	1.78 µM (inactive)	1.9 µM (inactive)	1.82 µM (inactive)	1.42 µM (inactive)	2.29 µM (inactive)	1.64 µM (inactive)	–
O=C(O)c1nc2ccc(C(F)(F)F)cc2nc1Nc1ccc(F)cc1	20.7	15.4 µM (inactive)	23.6 µM (inactive)	36.6 µM (inactive)	9.57 µM (inactive)	–	20.7 µM (inactive)	18 µM (inactive)	> 10 µM (inactive)	30 µM (inactive)	–	16.9 µM (inactive)	27.5 µM (inactive)	18.6 µM (inactive)	–	15.5 µM (inactive)	22.6 µM (inactive)	7.38 µM (inactive)	15.7 µM (inactive)
COc1cc(/C=N/NC(=O)c2ccc(NC(C)=O)cc2OC)ccc1O	76.6	> 100 µM (inactive)	> 100 µM (inactive)	–	> 100 µM (inactive)	39.2 µM (inactive)	64 µM (inactive)	> 100 µM (inactive)	74.3 µM (inactive)	> 100 µM (inactive)	> 100 µM (inactive)	86.3 µM (inactive)	> 100 µM (inactive)	> 100 µM (inactive)	> 100 µM (inactive)	34.2 µM (inactive)	> 100 µM (inactive)	–	–
CC(C)(C)OC(=O)n1cc(C2CN(O)C(=O)C23CCC(=O)N3Cc2ccccc2)c2ccccc21 (stereo not drawn)	–	> 100 µM (inactive)	68.7 µM (inactive)	32.8 µM (inactive)	> 100 µM (inactive)	49 µM (inactive)	18.8 µM (inactive)	29.4 µM (inactive)	68.7 µM (inactive)	54.6 µM (inactive)	> 100 µM (inactive)	24.8 µM (inactive)	52.7 µM (inactive)	44.1 µM (inactive)	23.9 µM (inactive)	86.3 µM (inactive)	98.9 µM (inactive)	36.9 µM (inactive)	–
CCC1(C)NC(c2cnccn2)=NN1c1ccc(Cl)cc1 (stereo not drawn)	> 100	41.9 µM (inactive)	45.3 µM (inactive)	70.3 µM (inactive)	32.7 µM (inactive)	> 100 µM (inactive)	> 100 µM (inactive)	> 100 µM (inactive)	> 100 µM (inactive)	> 100 µM (inactive)	> 100 µM (inactive)	> 100 µM (inactive)	> 100 µM (inactive)	> 100 µM (inactive)	> 100 µM (inactive)	> 100 µM (inactive)	63.2 µM (inactive)	52.8 µM (inactive)	–
N#Cc1nc(C2CC2)oc1N	> 100	94.4 µM (inactive)	> 100 µM (inactive)	> 100 µM (inactive)	> 100 µM (inactive)	> 100 µM (inactive)	> 100 µM (inactive)	–	> 100 µM (inactive)	> 100 µM (inactive)	> 100 µM (inactive)	–	> 100 µM (inactive)	25.7 µM (inactive)	> 100 µM (inactive)	> 100 µM (inactive)	> 100 µM (inactive)	> 100 µM (inactive)	> 100 µM (inactive)
O=c1c(Br)c(-c2ccccc2)[s+]([O-])c2ccccc12 (stereo not drawn)	3.32	10.4 µM (inactive)	16.7 µM (inactive)	18.2 µM (inactive)	1.22 µM (inactive)	3.01 µM (inactive)	10.1 µM (inactive)	11.5 µM (inactive)	18.2 µM (inactive)	9.12 µM (inactive)	12.9 µM (inactive)	–	6 µM (inactive)	15.8 µM (inactive)	17.7 µM (inactive)	16.4 µM (inactive)	1.59 µM (inactive)	8.07 µM (inactive)	14.6 µM (inactive)
CC[C@]1(Cc2ccc(OC)c(OC)c2)C2CC(C(=O)OC)ON2O[C@H](OCc2ccccc2)[C@@H]1OC(C)=O (stereo partly drawn)	> 100	> 100 µM (inactive)	> 100 µM (inactive)	> 100 µM (inactive)	> 100 µM (inactive)	–	42.4 µM (inactive)	> 100 µM (inactive)	> 100 µM (inactive)	> 100 µM (inactive)	> 100 µM (inactive)	> 100 µM (inactive)	> 100 µM (inactive)	> 100 µM (inactive)	> 100 µM (inactive)	–	> 100 µM (inactive)	> 100 µM (inactive)	39.2 µM (inactive)
CC(C)[Si](OC1=C(C(=O)N(C)c2ccccc2Cl)CCC1)(C(C)C)C(C)C	16.5	19.1 µM (inactive)	24 µM (inactive)	17.8 µM (inactive)	30.3 µM (inactive)	22.9 µM (inactive)	18.3 µM (inactive)	24.8 µM (inactive)	15.8 µM (inactive)	18.7 µM (inactive)	19 µM (inactive)	15.6 µM (inactive)	19.8 µM (inactive)	20.6 µM (inactive)	16.5 µM (inactive)	18.5 µM (inactive)	16.3 µM (inactive)	16 µM (inactive)	–
Cc1ccc(/N=N/C(=O)NNc2ccc(C)cc2Br)c(Br)c1	20	19.6 µM (inactive)	32.7 µM (inactive)	31.1 µM (inactive)	10.4 µM (inactive)	–	20.8 µM (inactive)	16.9 µM (inactive)	32.5 µM (inactive)	24.9 µM (inactive)	24.5 µM (inactive)	26.9 µM (inactive)	19.3 µM (inactive)	–	–	25.8 µM (inactive)	37.5 µM (inactive)	16.1 µM (inactive)	16.4 µM (inactive)
c1ccc(C2=Nc3nc4ccccc4n3C(c3ccccc3)C2)cc1 (stereo not drawn)	> 100	> 100 µM (inactive)	> 100 µM (inactive)	> 100 µM (inactive)	> 100 µM (inactive)	> 100 µM (inactive)	> 100 µM (inactive)	> 100 µM (inactive)	44.8 µM (inactive)	> 100 µM (inactive)	> 100 µM (inactive)	> 100 µM (inactive)	> 100 µM (inactive)	> 100 µM (inactive)	> 100 µM (inactive)	> 100 µM (inactive)	> 100 µM (inactive)	> 100 µM (inactive)	–
Cc1ccc2cc3c(ccc4ccccc43)c3c2c1CC3 [3-METHYLCHOLANTHRENE]	9.82	–	> 100 µM (inactive)	> 100 µM (inactive)	> 100 µM (inactive)	> 100 µM (inactive)	> 100 µM (inactive)	> 100 µM (inactive)	> 100 µM (inactive)	> 100 µM (inactive)	> 100 µM (inactive)	–	> 100 µM (inactive)	> 100 µM (inactive)	> 100 µM (inactive)	> 100 µM (inactive)	–	> 100 µM (inactive)	> 100 µM (inactive)
